Patent publication US20120196899A1, “METHODS AND PRODUCTS FOR TREATING INFLAMMATION” (Rock Creek Pharmaceuticals, Inc., priority 2010, published 2012)
Several values for one entry are separate records, joined by “and”; a condition that tells them apart may be missing. Equal entries are not always repeated. Where two headings read alike, the source gives them in different places.

Assay: Plasma pharmacokinetics after oral multi-dose anatabine polacrilex
Type: in vivo, Sprague-Dawley rats
Conditions: for Cp,max(1): after dose 1, mean; for Cp,max(3): after dose 3, mean; for Cp,max(2): after dose 2, mean; for AUC(0-inf) / concentration at 270 min / concentration at 300 min / concentration at 475 min / concentration at 540 min / concentration at 600 min / concentration at 720 min / concentration at 30 min / concentration at 60 min / concentration at 235 min / half-life: Sprague-Dawley, rat, plasma; for AUC(0-inf) / half-life: po; for concentration at 270 min / concentration at 300 min / concentration at 475 min / concentration at 540 min / concentration at 600 min / concentration at 720 min / concentration at 30 min / concentration at 60 min / concentration at 235 min: oral, Avg. Conc. of anatabine in plasma, Male and Female
Procedure: This study consisted of two groups of 8 animals each, 4 males and 4 females.
Two formulations were prepared; one for each of the two treatment groups. The test compound was formulated for each treatment group just prior to the first dose administration and constantly stirred until dosing was completed (Table 37). Four aliquots of each dose level formulation were collected and stored at −80° C.
The animals were weighed prior to dosing and received three doses p.o. of test compound at a volume of 5 mL/kg. Blood was collected via the venus plexus (retro-orbital) into tubes containing (K2) EDTA. No more than 0.5 mL was collected per time point.
Plasma was separated as per package instructions for MICROTAINER® brand collection tubes (3 minutes, 2000×g). Plasma was decanted into microfuge tubes and stored at −80° C. Remaining test compound was placed at −80° C.
Sample preparation. Plasma samples were treated with three volumes of methanol containing internal standard at 1 μM (R,S)-Antabine-2,4,5,6-d4), incubated 10 min at 4° C., and centrifuged. The amount of the test agent in the supernatant was determined by LC/MS/MS.
Analysis. Samples were analyzed by LC/MS/MS using an Agilent 6410 mass spectrometer coupled with an Agilent 1200 high pressure liquid chromatography (HPLC) and a CTC PAL chilled autosampler, all controlled by MassHunter software (Agilent). After separation on a Hydrophilic interaction liquid chromatography (HILIC) HPLC column (Sepax) using an acetonitrile-ammonium acetate/acetic acid gradient system, peaks were analyzed by mass spectrometry (MS) using ESI ionization in multiple reaction monitoring (MRM) mode. MassHunter software was used to calculate the concentration of the test compounds in samples from the peak area using the appropriate calibration curves.
Calibration samples. Calibration curves were determined in rat plasma. Calibration samples were prepared by diluting a 50× stock solution of the test compound in PBS with blank matrix to the appropriate concentration and these samples were prepared as described above in the sample preparation.
Data Analysis. Descriptive statistics were calculated for all pharmacokinetic parameters. Elimination half-lives (t1/2) were calculated by linear regression of logarithmically transformed plasma concentration data for each period between doses and following the final dose.
Total areas under the plasma concentration curves (AUC) and under the first moment curves (AUMC) were calculated using linear trapezoidal summation across all concentration time points as well as for intervals between each dose administration and following the final dose. […] Mean absorption times (MAT) were calculated according to the following relation: […]
where MRT represents the mean residence time. This was calculated from the mean residence times.
The statistical comparison of parameters between male and female animals was made using a two-tailed, unpaired, t-test with a 95 percent confidence interval. Repeated-measures analysis of variance (ANOVA) was used for multiple comparisons of Cp, max involving successive determinations on the same group of animals.

[1] = 0.6 mg/kg, male and female combined, mean
[2] = 6.0 mg/kg, male and female combined, mean
[3] = all data combined (overall), mean
[4] = both dose levels and genders combined, anatabine polacrilex p.o.
[5] = both treatment groups combined, female rats, mean
[6] = both treatment groups combined, male rats, mean

## C1=CCC(c2cccnc2)NC1 (racemic) [Anatabine, 1,2,3,6-tetrahydro-[2,3′]bipyridinyl]
0.6 mg/kg BW group, first value of male versus female comparison
  Cp,min(2): 15.3 ± 5.5 ng/mL
0.6 mg/kg BW group, second value of male versus female comparison
  Cp,min(2): 7.5 ± 1.7 ng/mL
0.6 mg/kg, female rats
  Cp,max(1): 38.3 ng/mL
0.6 mg/kg, female rats, mean
  Cp,min(1): 10.3 ng/mL
  Cp,min(2): 7.5 ng/mL
  MAT0→4 (mean absorption time): 0.53 h
  MTT0→4 (mean transit time): 2.98 h
  AUC(0-inf): 290 ng·h/mL
[1]
  AUC0→∞: 285 ng·h/mL
  MAT0→4: 0.61 h
  MTT0→4: 3.06 h
0.6 mg/kg, male rats
  Cp,max(1): 34.3 ng/mL
  Cp,max(3): 37.3 ng/mL
0.6 mg/kg, male rats, mean
  Cp,min(1): 11.0 ng/mL
  Cp,min(2): 15.3 ng/mL
  MAT0→4 (mean absorption time): 0.71 h
  MTT0→4 (mean transit time): 3.17 h
  AUC(0-inf): 280 ng·h/mL
6.0 mg/kg BW group, first value of male versus female comparison
  Cp,min(2): 93 ± 16 ng/mL
6.0 mg/kg, female rats
  Cp,max(1): 260 ng/mL and 259.8 ng/mL
  Cp,max(2): 312 ng/mL and 312.0 ng/mL
  Cp,max(3): 375 ng/mL and 374.8 ng/mL
6.0 mg/kg, female rats, mean
  Cp,min(1): 52 ng/mL and 51.5 ng/mL
  Cp,min(2): 180 ng/mL and 180.0 ng/mL
  MAT0→4 (mean absorption time): 0.30 h
  MTT0→4 (mean transit time): 2.76 h
  AUC(0-inf): 3740 ng·h/mL
[2]
  AUC0→∞: 3496 ng·h/mL
  MAT0→4: 0.52 h
  MTT0→4: 2.97 h
6.0 mg/kg, male rats
  Cp,max(1): 287 ng/mL
  Cp,max(2): 305 ng/mL
6.0 mg/kg, male rats, mean
  Cp,min(1): 75 ng/mL
  Cp,min(2): 93 ng/mL
  MAT0→4 (mean absorption time): 0.73 h
  MTT0→4 (mean transit time): 3.18 h
  AUC(0-inf): 3260 ng·h/mL
[3]
  MAT0→4: 0.56 h
  MTT0→4: 3.01 h
[4]
  mean absorption time (MAT0→4): 0.56 ± 1.25 h
  mean transit time (MTT0→4): 3.01 ± 1.25 h
Both sexes, 0.2 mg/kg BW, dose group 0.2, combined male and female, 270 min
  concentration at 270 min: 26 ng/mL
Both sexes, 0.2 mg/kg BW, dose group 0.2, combined male and female, 300 min
  concentration at 300 min: 27 ng/mL
Both sexes, 0.2 mg/kg BW, dose group 0.2, combined male and female, 475 min
  concentration at 475 min: 11 ng/mL
Both sexes, 0.2 mg/kg BW, dose group 0.2, combined male and female, 540 min
  concentration at 540 min: 30 ng/mL
Both sexes, 0.2 mg/kg BW, dose group 0.2, combined male and female, 600 min
  concentration at 600 min: 26 ng/mL
Both sexes, 0.2 mg/kg BW, dose group 0.2, combined male and female, 720 min
  concentration at 720 min: 13 ng/mL
Both sexes, 0.2 mg/kg, dose group 0.2, combined male and female, 30 min
  concentration at 30 min: 36 ng/mL
Both sexes, 0.2 mg/kg, dose group 0.2, combined male and female, 60 min
  concentration at 60 min: 31 ng/mL
Both sexes, 0.2 mg/kg, dose group 0.2, combined male and female, 235 min
  concentration at 235 min: 10 ng/mL
Both sexes, 2 mg/kg BW, dose group 2, combined male and female, 30 min
  concentration at 30 min: 201 ng/mL
Both sexes, 2 mg/kg BW, dose group 2, combined male and female, 60 min
  concentration at 60 min: 139 ng/mL
Both sexes, 2 mg/kg BW, dose group 2, combined male and female, 235 min
  concentration at 235 min: 63 ng/mL
Both sexes, 2 mg/kg BW, dose group 2, combined male and female, 270 min
  concentration at 270 min: 278 ng/mL
Both sexes, 2 mg/kg BW, dose group 2, combined male and female, 300 min
  concentration at 300 min: 222 ng/mL
Both sexes, 2 mg/kg BW, dose group 2, combined male and female, 475 min
  concentration at 475 min: 136 ng/mL
Both sexes, 2 mg/kg BW, dose group 2, combined male and female, 540 min
  concentration at 540 min: 286 ng/mL
Both sexes, 2 mg/kg BW, dose group 2, combined male and female, 600 min
  concentration at 600 min: 237 ng/mL
Both sexes, 2 mg/kg BW, dose group 2, combined male and female, 720 min
  concentration at 720 min: 194 ng/mL
Both sexes, 0.6 mg/kg, 0.6 mg/kg BW total p.o., after final dose, males and females combined, read-out: t1/2, terminal (converted)
  half-life: 1.79 ± 0.64 h
Both sexes, 0.6 mg/kg, male and female combined, mean, read-out: t1/2,0→4 (converted)
  half-life: 2.05 h
Both sexes, 0.6 mg/kg, male and female combined, mean, read-out: t1/2,terminal (converted)
  half-life: 1.79 h
Both sexes, 6 mg/kg, 6.0 mg/kg BW total p.o., after final dose, males and females combined, read-out: t1/2, terminal (converted)
  half-life: 4.53 ± 1.77 h
Both sexes, 6 mg/kg, male and female combined, mean, read-out: t1/2,0→4 (converted)
  half-life: 1.79 h
Both sexes, 6 mg/kg, male and female combined, mean, read-out: t1/2,terminal (converted)
  half-life: 4.53 h
Both sexes, all data combined (overall), mean, read-out: t1/2,0→4 (converted)
  half-life: 1.93 h
Both sexes, both dose levels and genders combined, anatabine polacrilex p.o., read-out: elimination half-life following the first oral dose (t1/2, 0→4) (converted)
  half-life: 1.93 ± 0.73 h
Both sexes, 0.6 mg/kg BW total p.o., males and females combined
  AUC(0-inf): 285 ± 77 ng·h/mL
Both sexes, 6.0 mg/kg BW total p.o., males and females combined
  AUC(0-inf): 3500 ± 559 ng·h/mL
[5]
  MAT0→4: 0.42 h
  MTT0→4: 2.87 h
[6]
  MAT0→4: 0.72 h
  MTT0→4: 3.18 h
Dose 0.2 mg/kg, female, […], individual animals 2A-2D
  Anatabine Concentration in rat plasma: <LOQ
Dose 0.2 mg/kg, male, 30 min, individual animals 1A-1D
  Anatabine Concentration in rat plasma: <LOQ
Dose 0.2 mg/kg, male, 60 min, individual animals 1A-1D
  Anatabine Concentration in rat plasma: 34 ng/mL
Dose 0.2 mg/kg, male, 235 min, individual animals 1A-1D
  Anatabine Concentration in rat plasma: <LOQ and 13 ng/mL
Dose 0.2 mg/kg, male, 270 min, individual animals 1A-1D
  Anatabine Concentration in rat plasma: 31 ng/mL and 20 ng/mL
Dose 0.2 mg/kg, male, 300 min, individual animals 1A-1D
  Anatabine Concentration in rat plasma: 26 ng/mL and 29 ng/mL
Dose 0.2 mg/kg, male, 475 min, individual animals 1A-1D
  Anatabine Concentration in rat plasma: 9 ng/mL and <LOQ and 18 ng/mL
Dose 0.2 mg/kg, male, 540 min, individual animals 1A-1D
  Anatabine Concentration in rat plasma: 4 ng/mL and 28 ng/mL and 41 ng/mL
Dose 0.2 mg/kg, male, 600 min, individual animals 1A-1D
  Anatabine Concentration in rat plasma: <LOQ and 17 ng/mL and 35 ng/mL
Dose 0.2 mg/kg, male, 720 min, individual animals 1A-1D
  Anatabine Concentration in rat plasma: <LOQ and 5 ng/mL and 12 ng/mL
Dose 0.2 mg/kg, male, […], individual animals 1A-1D
  Anatabine Concentration in rat plasma: <LOQ
Dose 2 mg/kg, female, 30 min, individual animals 4A-4D
  Anatabine Concentration in rat plasma: 78 ng/mL and 218 ng/mL and 98 ng/mL
Dose 2 mg/kg, female, 60 min, individual animals 4A-4D
  Anatabine Concentration in rat plasma: 81 ng/mL and 95 ng/mL and 165 ng/mL
Dose 2 mg/kg, female, 235 min, individual animals 4A-4D
  Anatabine Concentration in rat plasma: 75 ng/mL and 36 ng/mL and 23 ng/mL and 72 ng/mL
